Measured values taken from US20230137943A1, “PHOTOPROXIMITY PROFILING OF PROTEIN-PROTEIN INTERACTIONS IN CELLS” (The University of Chicago, priority 2019, published 2023).

Legend:
KEAP1-SNAP protein = target: T1, KEAP1-SNAP protein (Homo sapiens, UniProt P16455+Q14145, A127T/A154D/C150Q/C62A/E30R/G131K/G132T/G153L/K125A/K32I/L33F/M134L/N157G/Q115S/Q116H/R128A/R135S/S151G/S152D/S159E); assay: Probe dose response: labeling of KEAP1-SNAP fusion in live cells (Western blot); format: cell-based
T1 construct: expressed in transfected cells; host or cells: HEK293T, lentiviral transduction with pDC-006, blasticidin selection
Experimental: PP1 close response and viability assay: Dose response—Each well of a 6-well plate was seeded with 300,000 HEK293T cells stably expressing either SNAP-FLAG or KEAP-SNAP. After reaching ˜90% confluency the growth media was removed, cells washed with DPBS, and treated with varying concentrations (0, 0.5, 1, 5, 15, 45 μM) of photoproximity probe PP1 in 500 μL serum-free DMEM for 2 hours at 37° C. Post treatment, media was aspirated and non-reacted probe washed out with 3 mL full DMEM over 40 minutes, changing the media twice. Cells were harvested, washed, and lysed in DPBS containing protease inhibitor using a tip sonicator. Lysate was normalized to 1 mg/mL then diluted with loading buffer and run on SDS-PAGE gel that was transferred by western blot to nitrocellulose. The nitrocellulose membrane was stained for biotin and Flag-Tag using streptavidin IR dye (Li-cor #926-32230; Li-cor Biosciences, Lincoln, Nebr., United States of America) and anti-Flag (Sigma #F3165, Sigma-Aldrich, St. Louis, Mo., United States of America; Li-cor #926-68072, Li-cor Biosciences, Lincoln, Nebr., United States of America). Fluorescence images were collected using an Odyssey infrared imager (Li-cor Biosciences, Lincoln, Nebr., United States of America).
Both C- and N-terminal SNAP-Tag fusions of full-length, human KEAP1, in each case separated by a short linker were cloned. […] Both C- and N-terminal SNAP fusions were functional, as indicated by dose-dependent labeling with PP1 in live cells. […] Finally, it was expected that identification of probe-labeled binding partners, and therefore proteins proximal to KEAP1 in cells, would be improved by quantitative proteomic differentiation of enriched vs. background proteins. Therefore, SILAC-labeled cultures expressing both N-terminal (referred to as SNAP-KEAP1) and C-terminal (referred to as KEAP1-SNAP) fusion proteins with light and heavy arginine and lysine were prepared. Matched cultures of heavy and light cells, each expressing the same SNAP-KEAP1 or KEAP1-SNAP construct, were then treated with PP1 probe or vehicle for 2 hr. […]

[1] = tested on: HEK293T cells stably expressing SNAP-FLAG; assay: Viability assay (CellTiter-Glo, relative ATP content); format: cell-based, human; details: 2 hours at 37° C.
Experimental: Viability assay: HEK293T cells stably expressing SNAP-FLAG were seeded with at 5,000 cells per well in 50 μL DMEM in a 96-well plate. Twenty-four hours later, cells were treated with a varying concentration (0, 0.5, 1, 5, 15, 45 μM in sextuplicate) of photoproximity probe PP1 in a total volume of 100 μL DMEM. After 2 hours at 37° C., a 100 μL of CellTiter-Glo® (Promega Corporation, Madison, Wis., United States of America; 5-fold DPBS dilution) was added and the plate imaged using a SYNERGY™ Neo HST plate reader (BioTek, Winooski, Vt., United States of America).
To determine if AC1 affects cell viability, a viability assay was performed. Briefly, HEK293T cells stably expressing Snap-Flag were seeded at 5,000 cells per well in 100 μL DMEM in a 96-well plate. Upon >90% confluency, media was gently removed and cells were treated with a varying concentration (0, 1, 5, 10, 15, 20, 50 uM) in sextuplicate of AC-1 in a total volume of 75 μL DMEM. After 2 hours at 37° C., media was aspirated and cells were gently washed with […] of serum free DMEM. […] Luminescence was recorded using a SYNERGY™ Neo HST plate reader (BioTek, Winooski, Vt., United States of America).
HEK293T cells stably expressing Snap-Flag were seeded at 5,000 cells per well in 100 μL DMEM in a 96-well plate. […] Luminescence was recorded using a SYNERGY™ Neo HST plate reader (BioTek, Winooski, Vt., United States of America).

T1 sequence (Q14145+P16455 fused with the stated changes): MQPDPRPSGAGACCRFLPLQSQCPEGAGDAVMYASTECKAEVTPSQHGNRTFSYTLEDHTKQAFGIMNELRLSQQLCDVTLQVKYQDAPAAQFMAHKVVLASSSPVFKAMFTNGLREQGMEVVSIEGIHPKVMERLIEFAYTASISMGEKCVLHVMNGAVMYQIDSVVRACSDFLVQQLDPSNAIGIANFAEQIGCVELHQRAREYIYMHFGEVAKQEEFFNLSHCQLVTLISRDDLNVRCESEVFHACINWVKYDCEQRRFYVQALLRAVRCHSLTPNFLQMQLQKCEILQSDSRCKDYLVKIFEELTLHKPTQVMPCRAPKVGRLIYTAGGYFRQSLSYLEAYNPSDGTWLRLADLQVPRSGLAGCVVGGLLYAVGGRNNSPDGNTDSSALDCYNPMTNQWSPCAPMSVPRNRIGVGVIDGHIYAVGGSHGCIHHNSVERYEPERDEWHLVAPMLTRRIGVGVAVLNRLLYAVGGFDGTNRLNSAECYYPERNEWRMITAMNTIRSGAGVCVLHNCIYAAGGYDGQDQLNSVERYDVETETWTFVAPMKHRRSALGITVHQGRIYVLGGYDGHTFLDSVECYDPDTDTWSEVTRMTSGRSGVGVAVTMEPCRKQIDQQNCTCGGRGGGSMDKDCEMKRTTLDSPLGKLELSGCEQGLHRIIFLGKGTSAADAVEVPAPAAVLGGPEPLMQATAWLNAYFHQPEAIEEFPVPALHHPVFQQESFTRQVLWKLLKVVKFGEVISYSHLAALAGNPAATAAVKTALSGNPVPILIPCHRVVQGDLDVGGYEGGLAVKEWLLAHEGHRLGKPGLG

Row | Structure (SMILES) | EC50 of KEAP1-SNAP fusion labeling (KEAP1-SNAP protein; PP1, live HEK293T cells, 2 hr, not irradiated) | Cell viability ([1]; PP1 0-45 μM (saturating doses)) | Concentration at which protein is labeled (KEAP1-SNAP protein; AC1 0-50 μM, 1 or 2 hours, live HEK293T cells) | Cell permeability (KEAP1-SNAP protein; AC1, biotin-labeling of SNAP-FLAG-KEAP1 in live HEK293T cells) | Cell growth or viability ([1]; AC1 0-50 uM)
1 | COc1cc(C(C)OC(=O)NC(CCCCNC(=O)CCC2(C)N=N2)C(=O)NCCCCCNC(=O)CCCCC2SCC3NC(=O)NC32)c([N+](=O)[O-])cc1OCCCC(=O)NCc1ccc(COc2nc(N)nc3[nH]cnc23)cc1 (centres unmarked) [PP1] | low micromolar | not affected |  |  | 
2 | COc1cc(COC(=O)NC(CCCCNC(=O)CCC2(C)N=N2)C(=O)NCCCCC2SCC3NC(=O)NC32)c([N+](=O)[O-])cc1OCCCC(=O)NCc1ccc(COc2nc(N)nc3[nH]cnc23)cc1 (centres unmarked) [AC1] |  |  | low micromolar concentrations | cell permeable | does not impair cell growth or viability
